In ChEMBL document CHEMBL2364262, “Structure-activity relationship data for chemical series of agonists of the motilin receptor (Supplementary Bioactivity Data for publication CHEMBL1141008)”:

target: Motilin receptor (Homo sapiens, UniProt O43193); experiment: SUPPLEMENTARY: Agonist activity at human recombinant motilin receptor expressed in CHO cells by calcium mobilization-based FLIPR assay. Same assay as CHEMBL942680; type: functional, cell-based
Sequence (O43193 whole entry): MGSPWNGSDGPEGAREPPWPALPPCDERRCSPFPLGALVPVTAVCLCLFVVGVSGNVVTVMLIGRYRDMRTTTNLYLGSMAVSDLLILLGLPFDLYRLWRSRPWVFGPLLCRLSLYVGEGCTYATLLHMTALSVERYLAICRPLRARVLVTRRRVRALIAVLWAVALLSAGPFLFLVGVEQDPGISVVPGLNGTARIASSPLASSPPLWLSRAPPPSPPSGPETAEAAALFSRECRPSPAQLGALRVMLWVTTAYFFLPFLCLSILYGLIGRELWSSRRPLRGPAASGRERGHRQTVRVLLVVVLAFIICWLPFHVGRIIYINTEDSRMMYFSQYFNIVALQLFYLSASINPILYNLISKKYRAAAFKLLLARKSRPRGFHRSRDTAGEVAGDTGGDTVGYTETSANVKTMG

Going from C[C@@H]1CN(Cc2ccc(CC(=O)N3CCC(Oc4ccc(F)cc4)CC3)cc2)CCN1 to C[C@H]1CN(Cc2ccc(CC(=O)N3CCC(Oc4ccc(F)cc4)CC3)cc2)CCN1, the EC50 rises from 12.6 nM to 20 nM (1.6-fold). The first is the more potent here.

Going from C[C@H]1CN(Cc2ccc(CC(=O)N3CCC(Nc4ccc(C#N)cc4)CC3)cc2)CCN1 to C[C@@H]1CN(Cc2ccc(CC(=O)N3CCC(Nc4ccc(C#N)cc4)CC3)cc2)CCN1, the EC50 falls from 31.6 nM to 15.8 nM (2-fold).

First: C[C@H]1CN(Cc2ccc(CC(=O)N3CCC(Nc4ccc(F)c(F)c4)CC3)cc2)CCN1
Second: C[C@@H]1CN(Cc2ccc(CC(=O)N3CCC(Nc4ccc(F)c(F)c4)CC3)cc2)CCN1
The EC50 of the first is 1.6-fold lower: 7.94 nM for the first, 12.6 nM for the second.

Going from C[C@H]1CN(Cc2ccc(CC(=O)N3CCC(Oc4cccc(F)c4)CC3)cc2)CCN1 to C[C@@H]1CN(Cc2ccc(CC(=O)N3CCC(Oc4cccc(F)c4)CC3)cc2)CCN1, the EC50 falls from 25.1 nM to 15.8 nM (1.6-fold).

Compared with C[C@H]1CN(Cc2ccc(CC(=O)N3CCC(Nc4ccc(C(F)(F)F)cc4)CC3)cc2)CCN1, C[C@H]1CN(Cc2ccc(CC(=O)N3CCC(Nc4cccc(C(F)(F)F)c4)CC3)cc2)CCN1 is 1.6-fold lower in EC50: 10 nM for the first, 6.31 nM for the second.

First: COc1cc(CC(=O)N2CCC(Nc3cccc(F)c3)CC2)ccc1CN1CCN[C@@H](C)C1
Second: C[C@H]1CN(Cc2ccc(CC(=O)N3CCC(Nc4cccc(F)c4)CC3)cc2Cl)CCN1
The EC50 of the first is 5-fold higher: 25.1 nM for the first, 5.01 nM for the second. The second is the more potent here.

Compared with C[C@@H]1CN(Cc2ccc(CC(=O)N3CCC(Oc4ccc(C#N)cc4)CC3)cc2)CCN1, C[C@@H]1CN(Cc2ccc(CC(=O)N3CCC(Nc4cccc(C#N)c4)CC3)cc2)CCN1 is 4-fold lower in EC50: 12.6 nM for the first, 3.16 nM for the second. The second is the more potent here.

First: C[C@@H]1CN(Cc2ccc(CC(=O)N3CCC(Nc4cccc(C(F)(F)F)c4)CC3)cc2)CCN1
Second: C[C@@H]1CN(Cc2ccc(CCC(=O)N3CCC(Nc4cccc(F)c4)CC3)cc2)C[C@H](C)N1
The EC50 of the first is 16-fold lower: 2.51 nM for the first, 39.8 nM for the second. The first is the more potent here.

C[C@H]1CN(Cc2ccc(N(C)C(=O)c3ccc(-c4ccc(F)cc4)nc3)cc2)CCN1 and C[C@H]1CN(Cc2ccc(N(C)C(=O)c3ccc(-c4cccc(F)c4)nc3)cc2)CCN1 are within 1.5-fold of each other in EC50: 1.58 nM for the first, 1.26 nM for the second.

Compared with C[C@H]1CN(Cc2ccc(N(C)C(=O)c3ccc(-c4ccc(F)cc4)cc3)cc2)CCN1, C[C@H]1CN(Cc2ccc(N(C)C(=O)c3ccc(-c4ccc(F)cc4)cn3)cc2)CCN1 is 5-fold lower in EC50: 39.8 nM for the first, 7.94 nM for the second.

Compared with C[C@H]1CN(Cc2ccc(N(C)C(=O)C3CCN(Cc4cccc(F)c4)CC3)cc2)CCN1, C[C@H]1CN(Cc2ccc(N(C)C(=O)C3CCN(Cc4cccc(C#N)c4)CC3)cc2)CCN1 is 7.9-fold higher in EC50: 5.01 nM for the first, 39.8 nM for the second.

Going from C[C@H]1CN(Cc2ccc(N(C)C(=O)c3ccc(-c4ccccc4F)nc3)cc2)CCN1 to C[C@H]1CN(Cc2ccc(N(C)C(=O)c3ccc(Oc4ccccc4F)nc3)cc2)CCN1, the EC50 rises from 5.01 nM to 7.94 nM (1.6-fold). The first is the more potent here.

First: Cc1nc(-c2cccc(F)c2)ccc1C(=O)N(C)c1ccc(CN2CCN[C@@H](C)C2)cc1
Second: Cc1nc(-c2cccc(C#N)c2)ccc1C(=O)N(C)c1ccc(CN2CCN[C@@H](C)C2)cc1
The EC50 of the first is 2.5-fold lower: 0.631 nM for the first, 1.58 nM for the second. The first is the more potent here.

Compared with C[C@H]1CN(Cc2ccc(N(C)C(=O)c3ccc(Oc4cccc(F)c4)cc3)cc2)CCN1, C[C@H]1CN(Cc2ccc(N(C)C(=O)c3ccc(Oc4ccccc4F)cc3)cc2)CCN1 is 2-fold higher in EC50: 2.51 nM for the first, 5.01 nM for the second. The first is the more potent here.

Going from Cc1nc(-c2ccc(F)cc2)ccc1C(=O)N(C)c1ccc(CN2C[C@@H](C)N[C@@H](C)C2)cc1 to C[C@@H]1CN(Cc2ccc(N(C)C(=O)c3ccc(-c4ccc(F)cc4)nc3)cc2)C[C@H](C)N1, the EC50 rises from 0.398 nM to 2 nM (5-fold).

First: Cc1nc(-c2ccc(F)cc2)ncc1C(=O)N(C)c1ccc(CN2CCN[C@@H](C)C2)cc1
Second: C[C@H]1CN(Cc2ccc(N(C)C(=O)c3cnc(-c4ccc(F)cc4)nc3)cc2)CCN1
The EC50 of the first is 3.2-fold lower: 1.58 nM for the first, 5.01 nM for the second. The first is the more potent here.

First: Cc1cc(N(C)C(=O)c2ccc(-c3cccc(F)c3)nc2)ccc1CN1CCN[C@@H](C)C1
Second: C[C@H]1CN(Cc2ccc(N(C)C(=O)c3ccc(-c4cccc(F)c4)nc3)cc2F)CCN1
The EC50 of the first is 5-fold lower: 0.251 nM for the first, 1.26 nM for the second.

C[C@H]1CN(Cc2ccc(NS(=O)(=O)c3ccc(N4CCCCC4)nc3)cc2)CCN1 and C[C@H]1CN(Cc2ccc(N(C)C(=O)c3ccc(N4CCC(F)CC4)nc3)cc2)CCN1 are within 1.5-fold of each other in EC50: 100 nM for the first, 79.4 nM for the second.

Compared with C[C@H]1CN(Cc2ccc(N(C)C(=O)c3ccc(-c4cccc(C#N)c4)nc3)cc2)CCN1, C[C@H]1CN(Cc2ccc(N(C)C(=O)c3ccc(Oc4cccc(C#N)c4)nc3)cc2)CCN1 is 2.5-fold lower in EC50: 7.94 nM for the first, 3.16 nM for the second. The second is the more potent here.

Going from C[C@H]1CN(Cc2ccc(N(C)C(=O)c3ccc(-c4cccc(F)c4)nc3)c(F)c2)CCN1 to C[C@H]1CN(Cc2ccc(N(C)C(=O)c3ccc(Oc4ccc(F)cc4)nc3)c(F)c2)CCN1, the EC50 falls from 6.31 nM to 3.16 nM (2-fold).

Compared with C[C@H]1CN(Cc2ccc(N(C)C(=O)c3ccc(Oc4cccc(F)c4)cn3)cc2)CCN1, C[C@H]1CN(Cc2ccc(N(C)C(=O)c3ccc(Oc4cccc(C#N)c4)cn3)cc2)CCN1 is 2-fold higher in EC50: 1 nM for the first, 2 nM for the second. The first is the more potent here.

Compared with C[C@H]1CN(Cc2ccc(N(C)C(=O)C3CCN(Cc4ccc(F)cc4)CC3)cc2)CCN1, C[C@H]1CN(Cc2ccc(N(C)C(=O)C3CCN(Cc4ccc(C#N)cc4)CC3)cc2)CCN1 is 7.9-fold higher in EC50: 7.94 nM for the first, 63.1 nM for the second. The first is the more potent here.

Going from CCN(C(=O)c1ccc(-c2cccc(F)c2)nc1)c1ccc(CN2CCN[C@@H](C)C2)cc1 to COCCN(C(=O)c1ccc(-c2cccc(F)c2)nc1)c1ccc(CN2CCN[C@@H](C)C2)cc1, the EC50 rises from 0.794 nM to 15.8 nM (20-fold). The first is the more potent here.

First: C[C@H]1CN(Cc2ccc(N(C)C(=O)c3ccc(Oc4ccc(F)cc4)nc3)nc2)CCN1
Second: Cc1cc(N(C)C(=O)c2ccc(Oc3ccc(F)cc3)nc2)ncc1CN1CCN[C@@H](C)C1
The EC50 of the first is 16-fold higher: 31.6 nM for the first, 2 nM for the second.

Going from C[C@H]1CN(Cc2ccc(N(C)C(=O)c3ccc(-c4cccc(F)c4)cn3)cc2)CCN1 to C[C@H]1CN(Cc2ccc(N(C)C(=O)c3ccc(-c4cccc(C#N)c4)cn3)cc2)CCN1, the EC50 rises from 7.94 nM to 39.8 nM (5-fold). The first is the more potent here.

Going from CC(C)N(C(=O)c1ccc(-c2cccc(F)c2)nc1)c1ccc(CN2CCN[C@@H](C)C2)cc1 to COc1cccc(-c2ccc(C(=O)N(C)c3ccc(CN4CCN[C@@H](C)C4)cc3)nc2)c1, the EC50 falls from 12.6 nM to 7.94 nM (1.6-fold). The second is the more potent here.

Going from C[C@H]1CN(Cc2ccc(N(C)C(=O)c3ccc(C(=O)c4ccc(C(F)(F)F)cc4)cc3)cc2)CCN1 to CCN(C(=O)c1ccc(Oc2ccc(F)cc2)nc1)c1ccc(CN2CCN[C@@H](C)C2)cc1, the EC50 falls from 20 nM to 0.398 nM (50-fold). The second is the more potent here.

Cc1cc(N(C)C(=O)c2ccc(Oc3ccc(F)cc3)nc2)ccc1CN1CCN[C@@H](C)C1 and C[C@H]1CN(Cc2ccc(N(C)C(=O)c3ccc(Oc4ccc(F)cc4)nc3)cc2Cl)CCN1 are within 1.5-fold of each other in EC50: 0.251 nM for the first, 0.316 nM for the second.

First: C[C@@H]1CN(Cc2ccc(NS(=O)(=O)c3ccc(-c4ccc(F)cc4)nc3)cc2)C[C@H](C)N1
Second: Cc1cc(NS(=O)(=O)c2ccc(-c3ccc(F)cc3)nc2)ccc1CN1CCN[C@@H](C)C1
The EC50 of the first is 100-fold higher: 158 nM for the first, 1.58 nM for the second. The second is the more potent here.

Going from COCCN(C(=O)c1ccc(Oc2ccc(F)cc2)nc1)c1ccc(CN2CCN[C@@H](C)C2)cc1 to C[C@H]1CN(Cc2ccc(-c3cccnc3C(=O)N3CCC(Nc4ccc(F)cc4)CC3)cc2)CCN1, the EC50 falls from 15.8 nM to 1 nM (16-fold). The second is the more potent here.

Compared with C[C@H]1CN(Cc2ccc(NS(=O)(=O)c3ccc(-c4ccc(F)cc4)nc3)cc2C(F)(F)F)CCN1, Cc1cc(NS(=O)(=O)c2cncc(-c3ccc(F)cc3)c2)ccc1CN1CCN[C@@H](C)C1 is 13-fold higher in EC50: 1.58 nM for the first, 20 nM for the second.

Going from C[C@@H]1CN(Cc2ccn(-c3cccnc3N3CCC(Nc4ccc(F)cc4)CC3)n2)C[C@H](C)N1 to C[C@@H]1CN(Cc2ccn(-c3cccnc3N3CCC(Oc4ccc(F)cc4)CC3)n2)C[C@H](C)N1, the EC50 falls from 2 nM to 1.26 nM (1.6-fold).

Compared with C[C@@H]1CN(Cc2ccc(-c3cccnc3N3CCC(Nc4ccc(F)cc4)CC3)s2)C[C@H](C)N1, C[C@@H]1CN(Cc2ccn(-c3cccnc3N3CCC(Oc4ccccc4F)CC3)n2)C[C@H](C)N1 is 4-fold lower in EC50: 25.1 nM for the first, 6.31 nM for the second. The second is the more potent here.

Going from C[C@@H]1CN(Cc2ccc(-c3cccnc3S(=O)(=O)N3CCC(Nc4ccccc4F)CC3)cc2F)C[C@H](C)N1 to C[C@@H]1CN(Cc2ccn(-c3cccnc3N3CCC(Oc4cccc(F)c4)CC3)n2)C[C@H](C)N1, the EC50 falls from 20 nM to 2.51 nM (8-fold).

Going from C[C@H]1CN(Cc2ccn(-c3cccnc3N3CCC(Oc4cccc(F)c4)CC3)n2)CCN1 to CC(C(=O)N1CCC(Nc2cccc(F)c2)CC1)c1ccc(CN2C[C@@H](C)N[C@@H](C)C2)cc1 (stereo partly specified), the EC50 rises from 0.794 nM to 15.8 nM (20-fold).

For C[C@@H]1CN(Cc2ccc(C(C)(C)C(=O)N3CCC(Nc4cccc(F)c4)CC3)cc2)C[C@H](C)N1, the EC50 was 25.1 nM.
